Biological target: T1, MAGL (Homo sapiens, UniProt Q99685)
T1 sequence (Q99685 1-303): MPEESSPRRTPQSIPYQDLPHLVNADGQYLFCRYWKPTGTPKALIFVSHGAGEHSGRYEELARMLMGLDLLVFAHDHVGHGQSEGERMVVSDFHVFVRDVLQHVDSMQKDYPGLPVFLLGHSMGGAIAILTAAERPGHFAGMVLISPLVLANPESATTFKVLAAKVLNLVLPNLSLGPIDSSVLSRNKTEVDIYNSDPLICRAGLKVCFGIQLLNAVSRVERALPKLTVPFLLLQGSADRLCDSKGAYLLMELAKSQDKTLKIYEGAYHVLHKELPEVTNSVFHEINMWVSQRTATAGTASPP
Experiment: 2-AG assay: MAGL inhibitory activity, hydrolysis of 2-arachidonoylglycerol to arachidonic acid followed by mass spectrometry
Format: biochemical
Conditions: 50 pM MAGL, 8 μM 2-arachidonoylglycerol, 15 min preincubation, 30 min incubation at RT
Description: Compounds were profiled for MAGL inhibitory activity by determining the enzymatic activity by following the hydrolysis of the natural substrate 2-arachidonoylglycerol resulting in arachidonic acid, which can be followed by mass spectrometry. This assay is hereinafter abbreviated “2-AG assay”.
The 2-AG assay was carried out in 384 well assay plates (PP, Greiner Cat #784201) in a total volume of 20 μL. Compound dilutions were made in 100% DMSO (VWR Chemicals 23500.297) in a polypropylene plate in 3-fold dilution steps to give a final concentration range in the assay from 12.5 μM to 0.8 pM. 0.25 μL compound dilutions (100% DMSO) were added to 9 μL MAGL in assay buffer (50 mM TRIS (GIBCO, 15567-027), 1 mM EDTA (Fluka, 03690-100 mL), 0.01% (v/v) Tween. After shaking, the plate was incubated for 15 min at RT. To start the reaction, 10 μL 2-arachidonoylglycerol in assay buffer was added. The final concentrations in the assay was 50 pM MAGL and 8 μM 2-arachidonoylglyerol. After shaking and 30 min incubation at RT, the reaction was quenched by the addition of 40 μL of acetonitrile containing 4 μM of d8-arachidonic acid. The amount of arachidonic acid was traced by an online SPE system (Agilent Rapidfire) coupled to a triple quadrupole mass spectrometer (Agilent 6460). A C18 SPE cartridge (G9205A) was used in an acetonitrile/water liquid setup. The mass spectrometer was operated in negative electrospray mode following the mass transitions 303.1→259.1 for arachidonic acid and 311.1→267.0 for d8-arachidonic acid. The activity of the compounds was calculated based on the ratio of intensities [arachidonic acid/d8-arachidonic acid].

Structure (SMILES) | IC50
O=C(N1CC(OCc2ccc(C(F)(F)F)cc2F)C1)N1C[C@@H]2CCc3cn[nH]c3[C@@H]2C1 (racemic) [Example 1, [3-[[2-Fluoro-4-(trifluoromethyl)phenyl]methoxy]azetidin-1-yl]-[rac-(5aR,8aS)-4,5,5a,6,8,8a-hexahydro-1H-pyrrolo[3,4-g]indazol-7-yl]methanone] | 0.008 µM
O=C(N1CC(OCc2ccc(C(F)(F)F)cc2F)C1)N1C[C@@H]2COc3cn[nH]c3[C@@H]2C1 (racemic) [Example 2, [3-[[2-Fluoro-4-(trifluoromethyl)phenyl]methoxy]azetidin-1-yl]-[rac-(1S,9R)-7-oxa-3,4,11-triazatricyclo[7.3.0.0^2,6]dodeca-2(6),4-dien-1l-yl]methanone] | 0.067 µM
O=C(N1C[C@@H]2COc3cn[nH]c3[C@@H]2C1)N1CC2(CC(Cc3ccc(F)cc3F)C2)C1 (single isomer, unassigned) [Example 5, (−)- or (+)-[6-[(2,4-Difluorophenyl)methyl]-2-azaspiro[3.3]heptan-2-yl]-[(1S,9R)-7-oxa-3,4,11-triazatricyclo[7.3.0.0^2,6]dodeca-2(6),4-dien-1l-yl]methanone] | 0.488 µM
O=C(N1C[C@H]2COc3cn[nH]c3[C@H]2C1)N1CC2(CC(Cc3ccc(F)cc3F)C2)C1 (single isomer, unassigned) [Example 6, (+)- or (−)-[6-[(2,4-Difluorophenyl)methyl]-2-azaspiro[3.3]heptan-2-yl]-[(1R,9S)-7-oxa-3,4,11-triazatricyclo[7.3.0.0^2,6]dodeca-2(6),4-dien-11-yl]methanone] | 0.009 µM
O=C(N1CC(OCc2ccc(C(F)(F)F)cc2F)C1)N1C[C@@H]2CCc3nn[nH]c3[C@@H]2C1 (single isomer, unassigned) [Example 7, (−)- or (+)-[3-[[2-Fluoro-4-(trifluoromethyl)phenyl]methoxy]azetidin-1-yl]-[(5aR,8aS)-4,5,5a,6,8,8a-hexahydro-1H-pyrrolo[3,4-e]benzotriazol-7-yl]methanone] | 0.05 µM
O=C(N1CC(OCc2ccc(C(F)(F)F)cc2F)C1)N1C[C@H]2CCc3nn[nH]c3[C@H]2C1 (single isomer, unassigned) [Example 8, (+)- or (−)-[3-[[2-Fluoro-4-(trifluoromethyl)phenyl]methoxy]azetidin-1-yl]-[(5aS,8aR)-4,5,5a,6,8,8a-hexahydro-1H-pyrrolo[3,4-e]benzotriazol-7-yl]methanone] | 0.523 µM
O=C(N1CC(OCc2ccc(C(F)(F)F)cc2F)C1)N1C[C@@H]2OCc3nn[nH]c3[C@@H]2C1 (single isomer, unassigned) [Example 9, (−)- or (+)-[3-[[2-Fluoro-4-(trifluoromethyl)phenyl]methoxy]azetidin-1-yl]-[(1S,9R)-8-oxa-3,4,5,11-tetrazatricyclo[7.3.0.02,6]dodeca-2(6),4-dien-11-yl]methanone] | 2.7 µM
O=C(N1CC(OCc2ccc(C(F)(F)F)cc2F)C1)N1C[C@@H]2c3[nH]nnc3CO[C@@H]2C1 (single isomer, unassigned) [Example 10, (+)- or (−)-[3-[[2-Fluoro-4-(trifluoromethyl)phenyl]methoxy]azetidin-1-yl]-[(1R,9S)-8-oxa-3,4,5,11-tetrazatricyclo[7.3.0.02,6]dodeca-2(6),4-dien-1l-yl]methanone] | 1.22 µM
O=C(N1CC(c2ccc(C3(C(F)(F)F)CC3)cc2)C1)N1C[C@@H]2COc3cn[nH]c3[C@@H]2C1 [Example 3, (−)- or (+)-[(1S,9R)-7-Oxa-3,4,11-triazatricyclo[7.3.0.0^2,6]dodeca-2(6),4-dien-11-yl]-[3-[4-[1-(trifluoromethyl)cyclopropyl]phenyl]azetidin-1-yl]methanone] | 0.013 µM
O=C(N1CC(c2ccc(C3(C(F)(F)F)CC3)cc2)C1)N1C[C@H]2COc3cn[nH]c3[C@H]2C1 [Example 4, (+)- or (−)-[(1R,9S)-7-Oxa-3,4,11-triazatricyclo[7.3.0.0^2,6]dodeca-2(6),4-dien-11-yl]-[3-[4-[1-(trifluoromethyl)cyclopropyl]phenyl]azetidin-1-yl]methanone] | 0.917 µM

Source: US20230203056A1, “HETEROCYCLIC COMPOUNDS” (Hoffmann-La Roche Inc., priority 2020, published 2023)
